Measured values from paper PMC11374673, “Discovery of isoquinoline sulfonamides as allosteric gyrase inhibitors with activity against fluoroquinolone-resistant bacteria” (Nature Chemistry, 2024).
Values joined by “and” are separate entries in the source; they are usually repeats but may differ in a detail not shown here. Identical values can stand only once. “Also recorded” adds a separate entry of the source.

Experiments:
sheep blood cells = assay: Haemolytic activity; assay type: cell-based; conditions: 20 h incubation with sheep blood cells
Experimental: Whole defibrinated sheep blood (10631715, Fisher Scientific) was centrifuged (400g) for 15 min at 4 °C. The supernatant was discarded and the remaining blood cell suspension was mixed with PBS and centrifuged (400g) for 15 min at 4 °C. Washing cycles were repeated at least three times, until the supernatant was clear after centrifugation. The packed blood cells were diluted 25-fold in PBS with 0.002% polysorbate 80. Test compounds were serially diluted twofold in U-bottom polypropylene 96-well microtitre plates in PBS with 0.002% polysorbate 80 (75 µl). An equal volume (75 µl) of the blood cell suspension was added to all wells. […]. The well plates were incubated for 20 h at 37 °C with continuous shaking (500 r.p.m.). After incubation, plates were centrifuged (800g) for 5 min, and 25 µl of supernatant was transferred to a clear UV-star flat-bottom polystyrene 96-well plate containing 100 µl ultrapure water per well. Absorption was measured at 415 nm with a Spark multimode microplate reader (Tecan). Data were corrected for the background response of 0.5% DMSO in the presence of cells with no antibiotic and normalized using the absorbance of 0.1% Triton X-100 with blood cells, as 100% haemolytic activity.

[1] = biological target: T1, E. coli GyrA S97L/GyrB gyrase (Escherichia coli, UniProt P0AES4, S97L); assay: Gyrase supercoiling inhibition, GyrA S97L variant; assay type: biochemical
T1 construct: represents the first full-length E. coli gyrase structure in complex with an intact DNA molecule; 10xHis; 2xStrep (Twin-Strep); made in house
Experimental: (§1) Of this stock solution, 27 µl was aliquoted for each reaction in 1.5 ml Eppendorf tubes and supplemented with 0.6 µl of the appropriate compound dilution or corresponding solvent with a final DMSO concentration of 2%. The reactions were started with 3 µl of enzyme (1 U for WT gyrase retrieved from Inspiralis Limited or 25–30 nM gyrase variants purified in house) in dilution buffer (50 mM Tris–HCl (pH 7.5), 100 mM KCl, 2 mM DTT, 1 mM EDTA and 50% (wt/vol) glycerol) for a final volume of 30 µl. Reactions were run at 37 °C for 30 min and stopped with the addition of 30 µl STEB buffer (40% (wt/vol) sucrose, 100 mM Tris–HCl pH 8, 100 mM EDTA, 0.5 mg ml^−1 bromophenol blue) and 30 µl of a chloroform:isoamyl alcohol solution (24:1 vol/vol). After brief vortexing and centrifugation at 2,300g for 1 min, 20 µl of the aqueous phase was loaded onto 1% (wt/vol) agarose gels in TAE (Tris–acetate […]) gel. The gels were run at 85 V for 2 h followed by staining (15 min) in 1 µg ml^−1 ethidium bromide and destaining (5–10 min) in water. DNA was visualized (602/50, UV Trans, auto optimal exposure) with a ChemiDoc MP (Bio-Rad Laboratories Inc., equipped with ImageLab Touch Software v2.0.0.27) and the percentage of supercoiled DNA relative to the total amount material per lane was determined with ImageLab 6.1 software (Bio-Rad Laboratories Inc.) or ImageJ[47] software. […]

[2] = biological target: T2, E. coli GyrA S172A/GyrB gyrase (Escherichia coli, UniProt P0AES4, S172A); assay: Gyrase supercoiling inhibition, GyrA S172A variant; assay type: biochemical
T2 construct: represents the first full-length E. coli gyrase structure in complex with an intact DNA molecule; 10xHis; 2xStrep (Twin-Strep); made in house
Experimental: as §1

P. aeruginosa gyrase = biological target: T3, P. aeruginosa gyrase (Pseudomonas aeruginosa, UniProt P48372); assay: Gyrase supercoiling inhibition; assay type: biochemical
T3 construct: purchased Inspiralis Ltd. PAG1001
Experimental: as §1

E. coli gyrase [3] = biological target: T4, E. coli gyrase (Escherichia coli, UniProt P0AES4); assay: ATP-independent relaxation inhibition; assay type: biochemical; conditions: 200 nM gyrase
Experimental: E. coli relaxation inhibition assays were conducted in a similar manner to supercoiling inhibition assays with the following modifications: spermidine and ATP were omitted from the assay buffer, supercoiled plasmid (pBR322) was used as DNA substrate and 200 nM E. coli gyrase was added to each reaction. After stopping each reaction with STEB, 3 µl 2% SDS was added and tubes were vigorously vortexed before loading the aqueous phase onto the gel.

E. coli gyrase [4] = biological target: T4, E. coli gyrase; assay: Time course of CIP- and Ca2+-mediated DNA cleavage; assay type: biochemical; conditions: 5 µM LEI-800
Experimental: Time courses of CIP- and Ca^2+-mediated DNA cleavage were performed based on a previously published protocol. E. coli gyrase (200 nM) was incubated at 25 °C in 360 µl reactions with assay buffer (35 mM Tris–HCl (pH 7.5), 24 mM KCl, 4 mM MgCl2, 2 mM DTT, 1.8 mM spermidine, 1 mM ATP, 6.5% (wt/vol) glycerol and 0.1 mg ml^−1 albumin) and 500 ng supercoiled pBR322 DNA (Inspiralis Ltd.). For CIP-induced cleavage, 5 µM […] into the master mix. For Ca^2+-induced cleavage, the assay buffer was supplemented with 5 mM CaCl2. […] At selected timepoints, 30 µl aliquots were withdrawn and stopped by an addition of 3 µl 2% SDS and 3 µl 100 mM EDTA. After the time course, aliquots were treated with proteinase K (0.5 mg ml^−1) for 30 min at 37 °C and extracted with 30 µ chloroform:isoamyl alcohol solution (24:1 vol/vol). The aqueous layers from the assays were mixed with 30 µl STEB and run on 1% agarose TAE gels with 10 µg ml^−1 ethidium bromide at 80 V. Gels were visualized and analysed as described for the supercoiling inhibition assays.

E. coli W3110 = assay: Time-kill assay
Experimental: From glycerol stocks, bacterial strains were cultured on blood agar plates by overnight incubation at 37 °C. Subsequently, a single colony was cultured in TSB overnight at 37 °C. The culture was diluted 100-fold in fresh CAMHB and grown until early exponential phase (OD600 of 0.25) followed by 100-fold dilution in media. The culture was split in separate culture tubes containing 2 ml. […] The supernatant was discarded and pellets were washed once with filter-sterilized PBS, then resuspended in an equal volume of fresh buffer and samples were tenfold serially diluted until a 10^5 dilution. Then, 10 µl of the appropriate dilutions were inoculated on LB agar plates in technical duplicates, subsequently allowed to evaporate and incubated at 37 °C for 18 h. The colonies were counted and used to calculate the colony forming unit (c.f.u.) per ml remaining in the original culture by taking the dilution factors into account. The experiment was performed in biological duplicates.

Structure (SMILES)	haemolytic activity (sheep blood cells)	supercoiling inhibition of GyrA S97L variant [1]	IC50 [2]	IC50 (P. aeruginosa gyrase)	ATP-independent supercoiling relaxation (E. coli gyrase [3])	CIP-mediated DNA cleavage (E. coli gyrase [4]; 5 µM CIP)	Ca2+-mediated DNA cleavage (E. coli gyrase [4]; 5 mM Ca2+)	time kill kinetics, bacterial count (E. coli W3110; 4xMIC, 0.5 h, n = 1 and n = 2)	time kill kinetics, bacterial count (E. coli W3110; 4xMIC, 1 h)	time kill kinetics, bacterial count (E. coli W3110; 4xMIC, 2 h)	time kill kinetics, bacterial count (E. coli W3110; 4xMIC, 4 h)	time kill kinetics, bacterial count (E. coli W3110; 4xMIC, 8 h)	time kill kinetics, bacterial count (E. coli W3110; 4xMIC, 24 h)	time kill kinetics, bacterial count (E. coli W3110; 8xMIC, 0.5 h)	time kill kinetics, bacterial count (E. coli W3110; 8xMIC, 1 h)	time kill kinetics, bacterial count (E. coli W3110; 8xMIC, 2 h)	time kill kinetics, bacterial count (E. coli W3110; 8xMIC, 4 h)	time kill kinetics, bacterial count (E. coli W3110; 8xMIC, 8 h)	time kill kinetics, bacterial count (E. coli W3110; 8xMIC, 24 h)	bactericidal activity (E. coli W3110; at higher concentrations)
O=S(=O)(NC[C@@H]1CC[C@H](c2ccc(-c3cccnc3)cc2)N1)c1cccc2cnccc12 [LEI-800]	no haemolytic activity	highly resistant	86 nM	96 nM	inhibited	amount of cleaved DNA is reduced; also recorded: clear inhibition	amount of cleaved DNA is reduced; also recorded: strongly inhibited	5.021 and 5.23	5.061 and 4.929	5.041 and 5.176	3.061 and 3.243	2 and 2.778	5.176 and 4.875	5.243 and 5.021	4.431 and 4.732	4.903 and 5	3.13 and 3.079	2.301 and 2	1.99	bactericidal
O=S(=O)(NC[C@H]1CC[C@@H](c2ccc(-c3ccc(F)nc3)cc2)N1)c1cccc2cnccc12 [LEI-801]	–	highly resistant	360 nM	–	–	–	–	–	–	–	–	–	–	–	–	–	–	–	–	–
